Assay: Gravimetric vapor sorption (GVS) moisture adsorption desorption isotherm
Format: physicochemical
Conditions: 25° C. and 90% humidity
Experimental: A gravimetric vapor sorption (GVS) study was run using a standard procedure. Samples were run on a dynamic vapor sorption analyzer (Surface Measurement Systems) running DVSCFR software. Sample sizes were typically 10 mg. A moisture adsorption desorption isotherm was performed as outlined below. The standard isotherm experiment, performed at 25° C., is a two-cycle run, starting at 40% RH (relative humidity), increasing humidity to 90% RH, decreasing humidity to 0% RH, increasing humidity again to 90% RH, and finally decreasing humidity to 0% RH in 10% RH intervals.

COc1cc2c(Oc3ccc(NC(=O)C4(C(=O)Nc5ccc(F)cc5)CC4)cc3F)ccnc2cc1OCCCN1CCOCC1.O [crystalline Compound 1, N-[3-fluoro-4-({6-(methyloxy)-7-[(3-morpholin-4-ylpropyl)oxy]quinolin-4-yl}oxy)phenyl]-N′-(4-fluorophenyl)cyclopropane-1,1-dicarboxamide crystalline hydrate]
weight gain (GVS): 2.5%
